Each compound was assayed against T1, human ferroportin (Homo sapiens, UniProt Q9NP59) (assay: ferroportin internalization assay (inhibition of hepcidin-induced internalization of Fpn)). Details: MDCK-FPN-HaloTag cells, 100 nM hepcidin, overnight incubation; concentration range from 0.04 to 40 μM.
T1 construct: expressed in transfected cells
T1 sequence (Q9NP59 1-571): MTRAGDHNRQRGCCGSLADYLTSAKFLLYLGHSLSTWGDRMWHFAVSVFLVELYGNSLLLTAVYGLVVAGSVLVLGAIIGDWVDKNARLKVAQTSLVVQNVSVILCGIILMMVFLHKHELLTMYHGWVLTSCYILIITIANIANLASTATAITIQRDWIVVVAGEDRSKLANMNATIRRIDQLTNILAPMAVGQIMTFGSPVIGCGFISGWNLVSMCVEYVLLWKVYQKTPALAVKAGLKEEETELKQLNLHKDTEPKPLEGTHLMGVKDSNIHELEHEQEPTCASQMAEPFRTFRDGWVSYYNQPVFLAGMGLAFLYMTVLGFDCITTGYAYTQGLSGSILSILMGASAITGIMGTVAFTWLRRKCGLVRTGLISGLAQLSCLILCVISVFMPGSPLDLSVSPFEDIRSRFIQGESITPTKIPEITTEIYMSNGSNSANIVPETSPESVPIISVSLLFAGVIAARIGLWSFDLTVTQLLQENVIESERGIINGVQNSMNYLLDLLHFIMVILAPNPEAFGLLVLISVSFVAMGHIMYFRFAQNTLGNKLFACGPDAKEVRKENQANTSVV
Assay type: cell-based
Experimental: The hepcidin-antagonistic action of the sulfonaminoquinoline compounds of the present invention was determined by means of the “ferroportin internalization assay” described in the following.
Organic compounds of low molecular weight which counteract the biological actions of hepcidin on its receptor, the iron exporter ferroportin (Fpn), were identified on the basis of their ability to inhibit hepcidin-induced internalization of Fpn in living cells. For this purpose, a stable cell line (Madin-Darby canine kidney, MDCK) was produced which constitutively expresses human ferroportin fused recombinantly at its C terminus with a fluorescent reporter protein (HaloTag®, Promega Corp.). The internalization of Fpn was monitored by labelling these cells with fluorescent ligands (HaloTag®-TMR, tetramethylrhodamine) which join covalently on to the HaloTag reporter gene fused with the Fpn. […] Optimized image analysis algorithms were used to ascertain the cell surface and to quantify the corresponding membrane fluorescence associated with the Fpn-HaloTag fusion protein. This assay allows a quantitative image-based analysis in order to quickly evaluate compounds which can block hepcidin-induced internalization of Fpn. This assay is a direct in vitro pendant of the in vivo action mechanism proposed for medicament candidates and is therefore suitable as an initial assay with a high throughput for identifying compounds which counteract the action of hepcidin on its receptor ferroportin.
• 7,500 cells per well (MDCK-FPN-HaloTag) were transinoculated in 50 μl of DMEM medium (Dulbeccos Modified Eagle Medium with 10% foetal bovine serum (FBS), which contained 1% penicillin, 1% streptomycin and 450 μg/ml of G-418) in microtitre plates with 384 wells (384 Cell carrier plates, Perkin Elmer, cat. no. 6007430), followed by incubation overnight at 37° C./5% CO2. • The volume of the medium was reduced to 10 μl, and 10 μl of 5 μM HaloTag-TMR ligands (Promega, cat. no. G 8251) were added in DMEM medium in order to stain the Fpn-HaloTag fusion protein. • 15 min incubation at 37° C./5% CO2 • The HaloTag-TMR ligand was removed and the cells were washed with fresh DMEM medium and the volume was reduced to 20 μl of DMEM medium. • 3 μl per well of a solution of the test compound (dissolved DMSO) were added ([…]). • 7 μl of […] hepcidin (Peptides International, cat. no. PLP-4392-s, 100 μM stock solution diluted in water in DMEM medium) were added per well up to a final hepcidin concentration of 100 nM. • The cells were incubated overnight at 37° C./5% CO2. • The cells were fixed by adding paraformaldehyde (PFA, Electron Microscopy Sciences, cat. no. 15710-S) directly to the cells up to a final concentration of 4%, followed by incubation at room temperature for 15-20 minutes. • The PFA solution was removed and the cells were washed with PBS (phosphate-buffered saline solution), in each case 30 μl remaining in the plate. • 20 μl of Draq5 (Biostatus, cat. no. DR 51000) were added up to a final concentration of 2.5 μM in order to stain the cell nuclei, and the plates were sealed with a foil plate seal. • The plates were analysed with the Opera Plate Imager (Opera Confocal Plate Imager, Perkin Elmer) with 7 images per well; 440 ms exposure time per image, […] focal point height.

SMILES	IC50
O=S1(=O)Nc2c(ccc3cccnc23)-c2ccccc21 [Example 2, 5H-6-Thia-4,5-diaza-chrysene 6,6-dioxide]	2900 nM
O=S(=O)(Nc1cccc2cccnc12)c1ccccc1 [Example 4, N-Quinolin-8-yl-benzenesulfonamide]	4590 nM
O=S(=O)(Nc1cccc2cccnc12)c1ccccc1Cl [Example 11, 2-Chloro-N-quinolin-8-yl-benzenesulfonamide]	8000 nM
Cc1ccc(S(=O)(=O)Nc2cccc3cccnc23)c(N)c1 [Example 14, 2-Amino-4-methyl-N-quinolin-8-yl-benzenesulfonamide]	300 nM
Cc1cccc(S(=O)(=O)Nc2cccc3cccnc23)c1 [Example 19, 3-Methyl-N-quinolin-8-yl-benzenesulfonamide]	2090 nM
O=S(=O)(Nc1cccc2cccnc12)c1cccc(Cl)c1 [Example 20, 3-Chloro-N-quinolin-8-yl-benzenesulfonamide]	985 nM
COc1cccc(S(=O)(=O)Nc2cccc3cccnc23)c1 [Example 21, 3-Methoxy-N-quinolin-8-yl-benzenesulfonamide]	1500 nM
O=S(=O)(Nc1ccc(Cl)c2cccnc12)c1ccccc1 [Example 25, N-(5-Chloro-quinolin-8-yl)-benzenesulfonamide]	1670 nM
Nc1cc(F)ccc1S(=O)(=O)Nc1cccc2cccnc12 [Example 31, 2-Amino-4-fluoro-N-quinolin-8-yl-benzenesulfonamide]	3940 nM
O=S(=O)(Nc1cccc2cccnc12)c1cccnc1 [Example 33, Pyridine-3-sulfonic acid quinolin-8-ylamide]	3640 nM
COc1ccc(S(=O)(=O)Nc2cccc3cccnc23)c([N+](=O)[O-])c1 [Example 34, 4-Methoxy-2-nitro-N-quinolin-8-yl-benzenesulfonamide]	1810 nM
O=S(=O)(Nc1cccc2cccnc12)c1ccccc1OC(F)(F)F [Example 36, N-Quinolin-8-yl-2-trifluoromethoxy-benzenesulfonamide]	2500 nM
N#Cc1ccccc1S(=O)(=O)Nc1cccc2cccnc12 [Example 37, 2-Cyano-N-quinolin-8-yl-benzenesulfonamide]	815 nM
COC(=O)c1cccc(S(=O)(=O)Nc2cccc3cccnc23)c1 [Example 40, 3-(Quinolin-8-ylsulfamoyl)-benzoic acid methyl ester]	1420 nM
O=S(=O)(Nc1cccc2cccnc12)c1ccc(Cl)cc1Cl [Example 41, 2,4-Dichloro-N-quinolin-8-yl-benzenesulfonamide]	989 nM
O=S(=O)(Nc1cccc2cccnc12)c1ccc(Cl)cc1F [Example 42, 4-Chloro-2-fluoro-N-quinolin-8-yl-benzenesulfonamide]	873 nM
O=S(=O)(Nc1cccc2cccnc12)c1cccc(C(F)(F)F)c1 [Example 44, N-Quinolin-8-yl-3-trifluoromethyl-benzenesulfonamide]	720 nM
O=C(Nc1ccccc1S(=O)(=O)Nc1cccc2cccnc12)C(F)(F)F [Example 49, 2,2,2-Trifluoro-N-[2-(quinolin-8-ylsulfamoyl)-phenyl]-acetamide]	307 nM
CC(=O)Nc1ccccc1S(=O)(=O)Nc1cccc2cccnc12 [Example 50, N-[2-(Quinolin-8-ylsulfamoyl)-phenyl]-acetamide]	1370 nM
Cc1ccc(S(=O)(=O)Nc2c(Cl)cc(Cl)c3cccnc23)cc1 [Example 51, N-(5,7-Dichloro-quinolin-8-yl)-4-methyl-benzenesulfonamide]	79000 nM
O=S(=O)(Nc1ccc(Cl)c2cccnc12)c1ccc(Cl)cc1F [Example 54, 4-Chloro-N-(5-chloro-quinolin-8-yl)-2-fluoro-benzenesulfonamide]	1380 nM
COc1cc(NS(=O)(=O)c2ccc(Cl)cc2F)c2ncccc2c1 [Example 57, 4-Chloro-2-fluoro-N-(6-methoxy-quinolin-8-yl)-benzenesulfonamide]	1750 nM
COc1cc(NS(=O)(=O)c2cccnc2)c2ncccc2c1 [Example 59, Pyridine-3-sulfonic acid (6-methoxy-quinolin-8-yl)-amide]	2800 nM

Continued, values first:

IC50	SMILES
3200 nM	O=S(=O)(Nc1cccc2cccnc12)c1ccc(Cl)cc1 [Example 5, 4-Chloro-N-quinolin-8-yl-benzenesulfonamide]
2900 nM	O=[N+]([O-])c1ccccc1S(=O)(=O)Nc1cccc2cccnc12 [Example 6, 2-Nitro-N-quinolin-8-yl-benzenesulfonamide]
20800 nM	Nc1ccccc1S(=O)(=O)Nc1cccc2cccnc12 [Example 8, 2-Amino-N-quinolin-8-yl-benzenesulfonamide]
49900 nM	Cc1ccc(S(=O)(=O)Nc2cccc3cccnc23)cc1 [Example 9, 4-Methyl-N-quinolin-8-yl-benzenesulfonamide]
413 nM	N#Cc1cccc(S(=O)(=O)Nc2cccc3cccnc23)c1 [Example 16, 3-Cyano-N-quinolin-8-yl-benzenesulfonamide]
1000 nM	O=S(=O)(Nc1cccc2cccnc12)c1ccc(C(F)(F)F)cc1 [Example 17, N-Quinolin-8-yl-4-trifluoromethyl-benzenesulfonamide]
6400 nM	COc1cc(NS(=O)(=O)c2ccccc2)c2ncccc2c1 [Example 23, N-(6-Methoxy-quinolin-8-yl)-benzenesulfonamide]
920 nM	O=[N+]([O-])c1cc(F)ccc1S(=O)(=O)Nc1cccc2cccnc12 [Example 30, 4-Fluoro-2-nitro-N-quinolin-8-yl-benzenesulfonamide]
760 nM	Nc1cc(C(F)(F)F)ccc1S(=O)(=O)Nc1cccc2cccnc12 [Example 35, 2-Amino-N-quinolin-8-yl-4-trifluoromethyl-benzenesulfonamide]
1200 nM	O=S(=O)(Nc1cccc2cccnc12)c1cccc(OC(F)(F)F)c1 [Example 38, N-Quinolin-8-yl-3-trifluoromethoxy-benzenesulfonamide]
58100 nM	COC(=O)c1ccccc1S(=O)(=O)Nc1cccc2cccnc12 [Example 39, 2-(Quinolin-8-ylsulfamoyl)-benzoic acid methyl ester]
419 nM	O=S(=O)(Nc1cccc2cccnc12)c1ccccc1C(F)(F)F [Example 43, N-Quinolin-8-yl-2-trifluoromethyl-benzenesulfonamide]
610 nM	Cc1cnc2c(NS(=O)(=O)c3ccccc3)cccc2c1 [Example 45, N-(3-Methyl-quinolin-8-yl)-benzenesulfonamide]
2300 nM	O=S(=O)(Nc1ccccc1)Nc1cccc2cccnc12 [Example 46, N-phenyl(quinolin-8-ylamino)sulfonamide]
857 nM	O=S(=O)(Nc1cccc2cccnc12)c1c(Cl)cc(Cl)cc1Cl [Example 47, 2,4,6-Trichloro-N-quinolin-8-yl-benzenesulfonamide]
24600 nM	CC(C)C(=O)Nc1ccccc1S(=O)(=O)Nc1cccc2cccnc12 [Example 48, N-[2-(Quinolin-8-ylsulfamoyl)-phenyl]-isobutyramide]
1780 nM	O=S(=O)(Nc1ccc(Cl)c2cccnc12)c1cccnc1 [Example 60, Pyridine-3-sulfonic acid (5-chloro-quinolin-8-yl)-amide]

— patent US9102688B2, “Sulfonaminoquinoline hepcidin antagonists” (Vifor (International) AG, priority 2011, dated 2015)
